Like-named read-outs stand apart in the source and are kept apart here.
Columns and labels:
Fuji apple variety [1] = assay: Flower-thinning effect of one alcohol species formulations (Test Example 1); format: in vivo; conditions: for Number of lateral fruits set: 20 days post-spraying; for Lateral flower-thinning rate (%) / Total flower-thinning rate (%): relative to untreated group; for Flower-thinning contribution rate in IAP-108: spray concentration 0.2%, effect × content (0.4 or 0.6)
honeybees [2] = conditions: active ingredient dissolved in acetone
Procedure: In the contact toxicity test for honeybees, healthy honeybees bred in an outdoor beekeeping system were acclimated in a breeding cage, and then anesthetized with CO2. […] This treatment was repeated 3 times for ten honeybees per test cage, and the honeybees were bred at 25° C. under dark conditions for 72 hours. The lethality of each aliphatic alcohol was measured.

honeybees [3] = assay: Acute contact toxicity to honeybees, active ingredients in acetone (Test Example 4); format: in vivo; conditions: for Lethality (%): 72 hours after treatment
Fuji apple variety [4] = conditions: in vivo; for Phytotoxicity: Fuji, apple
Procedure: Each of the chemical solutions was sprayed with a DIA (FURUPLA DIA SPRAY 570, Furupla Co., Ltd.) handy spray in both right and left directions in a sufficient amount to run along each flower cluster.
In this test, treatment (spraying) was performed when lateral flowers was in full bloom (Apr. 25, 2014), and phytotoxicity was assessed by visual scoring on day 4 after post-spraying (April 29) and day 11 after post-spraying (May 6). The flower-thinning effect was measured by recording the number of young fruits set without flower thinning on 20 days post-spraying (May 15). The flower thinning activity relative to that of the untreated group was presented as (1−number of young fruits in treated group/number of young fruits in untreated group)×100. This test was designed to have 8 replications with one flower cluster as one replication. Fertilization of the apple flowers was induced by natural fertilization.

peach leaves = conditions: 3-4% decyl alcohol; cited from earlier work
[5] = treatment dose 200 μg per honeybee in acetone

## CCCCCCCCO [1-Octanol, 1-octanol]
Fuji apple variety [1]; concentration 0.2%
  Number of central fruits set: 7
  Total number of fruits set: 13
  Number of lateral fruits set: 6
  Lateral flower-thinning rate (%): 68%
  Total flower-thinning rate (%): 48%
Fuji apple variety [1]; concentration 1%
  Number of central fruits set: 3
  Total number of fruits set: 4
  Number of lateral fruits set: 1
  Lateral flower-thinning rate (%): 95%
  Total flower-thinning rate (%): 84%
Fuji apple variety [1]; concentration of 1% (V/V)
  Efficacy (in words): sufficient efficacy
Fuji apple variety [1]
  Flower-thinning contribution rate in IAP-108: 27.2%
Honeybees [2]; treatment dose 100 μg
  Lethality (%): 50%
Honeybees [3]; [5]
  Lethality (%): 50%

## CCCCCCCCCC(=O)O [1-decanoic acid, reference compound]
Honeybees [3]; [5]
  Lethality (%): 90%

## CCCCCCO [1-Hexanol, 1-hexanol]
Fuji apple variety [1]; concentration 0.2%
  Number of central fruits set: 6
  Total number of fruits set: 15
  Number of lateral fruits set: 9
  Lateral flower-thinning rate (%): 53%
  Total flower-thinning rate (%): 40%
Fuji apple variety [1]; concentration 1%
  Number of central fruits set: 5
  Total number of fruits set: 10
  Number of lateral fruits set: 5
  Lateral flower-thinning rate (%): 74%
  Total flower-thinning rate (%): 60%
Honeybees [2]; treatment dose 100 μg
  Lethality (%): 3.3%
Fuji apple variety [4]
  Phytotoxicity: 0
Honeybees [3]; [5]
  Lethality (%): 6.7%

## CCCCCC(=O)O [1-hexanoic acid, reference compound]
Honeybees [3]; [5]
  Lethality (%): 30.0%

## CCCCCCCC(=O)O [1-octanoic acid, reference compound]
Honeybees [3]; [5]
  Lethality (%): 60%

## CCCCCCCCCCO [1-Decanol, 1-decanol]
Fuji apple variety [1]; concentration 0.01%
  Number of central fruits set: 6
  Total number of fruits set: 22
  Number of lateral fruits set: 16
  Lateral flower-thinning rate (%): 16%
  Total flower-thinning rate (%): 12%
Fuji apple variety [1]; concentration 0.05%
  Number of central fruits set: 5
  Total number of fruits set: 22
  Number of lateral fruits set: 17
  Lateral flower-thinning rate (%): 11%
  Total flower-thinning rate (%): 12%
Fuji apple variety [1]; concentration 0.2%
  Number of central fruits set: 5
  Total number of fruits set: 15
  Number of lateral fruits set: 10
  Lateral flower-thinning rate (%): 47%
  Total flower-thinning rate (%): 40%
Fuji apple variety [1]
  Flower-thinning contribution rate in IAP-108: 28.2%
Honeybees [2]; treatment dose 50 μg
  Lethality (%): 70%
Peach leaves
  Phytotoxicity to peach leaves: significant phytotoxicity
Fuji apple variety [4]
  Phytotoxicity: 0
  Phytotoxicity (in words): no phytotoxicity
Honeybees [3]; among aliphatic alcohols and versus fatty acids of same carbon number
  Comparative contact toxicity to honeybees (in words): more toxic than 1-decanoic acid
Honeybees [3]; in vivo
  Comparative contact toxicity to honeybees (in words): highest lethality
Honeybees [3]; treatment dose 50 μg per honeybee in acetone
  Lethality (%): 70%
Honeybees [3]; [5]
  Lethality (%): 100%

## CCCCCCCC/C=C\CCCCCCCCO [Oleyl alcohol, oleyl alcohol]
Fuji apple variety [1]; concentration 0.1%
  Lateral flower-thinning rate (%): 16%
Honeybees [3]; [5]
  Lethality (%): 20%

— patent US11771083B2, “Flower thinning composition and flower thinning method using same” (priority 2018, dated 2023)
